Source: EPA's ToxRefDB 2

Assays:
rat [1] = settings: Multigenerational reproductive toxicity study, sprague dawley, Oral, Gavage/Intubation, dose end: 1 generation
primate = settings: Subchronic oral toxicity in nonrodent, macaque, Gavage/Intubation, dose end: 90 day, group: systemic, systemic / in life observation / clinical signs / defecation (diarrhea) + systemic / in life observation / clinical signs / emesis
rabbit [2] = settings: Prenatal developmental toxicity study; new zealand white; Oral; Gavage/Intubation; dose end: 18 GD; group: maternal; systemic / in life observation / body weight / body weight gain + systemic / in life observation / clinical signs / [other] + systemic / in …
rat [3] = settings: Multigenerational reproductive toxicity study, sprague dawley, Oral, Gavage/Intubation, dose end: 1 generation, group: parental
rat [4] = settings: Subchronic oral toxicity in rodents, fischer, Feed, dose end: 13 week, group: systemic, systemic / clinical chemistry / alanine aminotransferase (alt/sgpt) / alanine aminotransferase (alt/sgpt) + systemic / clinical chemistry / …
mouse [5] = settings: Subchronic oral toxicity in rodents, b6c3f1, Gavage/Intubation, dose end: 14 week, group: systemic
mouse [6] = settings: Carcinogenicity; b6c3f1; Oral; Gavage/Intubation; dose end: 2 year; group: systemic; systemic / pathology microscopic / bone marrow / hyperplasia + systemic / pathology microscopic / liver / hypertrophy + systemic / pathology…
rat [7] = settings: Subchronic oral toxicity in rodents, fischer, Gavage/Intubation, dose end: 14 week
rat [8] = settings: Carcinogenicity; fischer; Oral; Gavage/Intubation; dose end: 2 year; group: systemic; systemic / pathology microscopic / kidney / nephropathy + systemic / pathology microscopic / liver / clear cell focus + systemic / pathology…
dog [9] = settings: Subchronic oral toxicity in nonrodent, beagle, Feed, dose end: 13 week, group: systemic, systemic / pathology microscopic / liver / infiltration cellular + systemic / pathology microscopic / liver / necrosis + systemic / …
rat [10] = settings: Subchronic oral toxicity in rodents, other, Feed, dose end: 3 month, group: systemic
rat [11] = settings: Prenatal developmental toxicity study, other, Oral, Gavage/Intubation, dose end: 15 GD
mouse [12] = settings: Carcinogenicity; other; Oral; Feed; dose end: 18 month; group: systemic; systemic / in life observation / body weight / body weight + systemic / in life observation / body weight / body weight gain + systemic / in…
rabbit [13] = settings: Prenatal developmental toxicity study, chinchilla, Oral, Gavage/Intubation, dose end: 19 GD
dog [14] = settings: Chronic toxicity; beagle; Oral; Feed; dose end: 12 month; group: systemic; systemic / in life observation / body weight / body weight gain + systemic / in life observation / food consumption / food consumption + …
rat [15] = settings: Prenatal developmental toxicity study, sprague dawley, Oral, Gavage/Intubation, dose end: 15 GD, group: maternal
rat [16] = settings: Subchronic oral toxicity in rodents, sprague dawley, Gavage/Intubation, dose end: 30 day, group: systemic, systemic / in life observation / clinical signs / soft stools + systemic / in life observation / clinical signs / urine, discoloration
rat [17] = settings: Prenatal developmental toxicity study; wistar; Injection; Intraperitoneal; dose end: 18 GD; group: maternal; reproductive / reproductive performance / resorptions / resorptions + reproductive / reproductive performance / reproductive performance …
rat [18] = settings: Prenatal developmental toxicity study; wistar; Injection; Intraperitoneal; dose end: 18 GD; group: developmental; developmental / developmental malformation / placenta / size + systemic / in life observation / body weight / fetal weight
rabbit [19] = settings: Prenatal developmental toxicity study, new zealand white, Injection, Intravenous, dose end: 15 GD
rat [20] = settings: Prenatal developmental toxicity study; sprague dawley; Injection; Intraperitoneal; dose end: 20 GD; group: maternal; reproductive / reproductive performance / reproductive performance other / runts + systemic / in life observation / body weight / body …
[21] = group: offspring, systemic / in life observation / body weight / offspring (pup) weight
[22] = group: parental, systemic / in life observation / clinical signs / [other]
[23] = group: parental, systemic / in life observation / clinical signs / [other] + systemic / in life observation / body weight / body weight gain + systemic / in …
[24] = systemic / clinical chemistry / albumin / albumin + systemic / clinical chemistry / albumin-globulin ratio / albumin-globulin ratio + …
[25] = systemic / clinical chemistry / cholesterol / cholesterol
[26] = systemic / hematology / heinz body / heinz body + systemic / hematology / methemoglobin / methemoglobin + systemic / in life observation / …
[27] = systemic / organ weight / liver / absolute + systemic / organ weight / liver / relative to body weight + systemic / pathology microscopic / …
[28] = group: maternal, reproductive / reproductive performance / estrous cycle / abnormal
[29] = group: systemic, systemic / clinical chemistry / alanine aminotransferase (alt/sgpt) / alanine aminotransferase (alt/sgpt) + systemic / clinical chemistry / …
[30] = systemic / pathology microscopic / urinary bladder / hyperplasia + systemic / clinical chemistry / bilirubin / total bilirubin
[31] = systemic / pathology microscopic / urinary bladder / hyperplasia + systemic / pathology microscopic / kidney / atrophy + systemic / …
[32] = group: developmental, developmental / developmental malformation / bone / bipartite ossification + developmental / developmental malformation / bone / dumbbell …
[33] = group: maternal, systemic / in life observation / body weight / body weight gain + systemic / in life observation / clinical signs / odorous urine + systemic…
[34] = group: developmental, developmental / developmental malformation / bone / unossified
[35] = group: maternal, systemic / in life observation / mortality / mortality + systemic / in life observation / clinical signs / reduced motor activity + systemic…
[36] = systemic / in life observation / clinical signs / salivation + systemic / in life observation / clinical signs / soft stools + systemic / in…
[37] = group: developmental, developmental / developmental malformation / bone / [other] + developmental / developmental malformation / brain / hydrocephaly + …
[38] = group: maternal, reproductive / reproductive performance / resorptions / resorptions
[39] = group: maternal, reproductive / reproductive performance / resorptions / resorptions + reproductive / offspring survival early / live fetuses / live fetuses

In the case of `COc1ccc2c(c[n+](C)c3c4cc5c(cc4ccc23)OCO5)c1OC.C[n+]1cc2c3c(ccc2c2ccc4cc5c(cc4c21)OCO5)OCO3.[Cl-].[Cl-]` [Chelerythrine chloride mixture with sanguinarine chloride], the LEL (rat [1]; [21]) is reported as 100 mg/kg/day, the LOAEL (rat [1]; [21]) is reported as 100 mg/kg/day and the NEL (rat [1]; [21]) is reported as 30 mg/kg/day. The NOAEL (rat [1]; [21]) was 30 mg/kg/day, the LEL (rat [1]; [22]) was 30 mg/kg/day and the LOAEL (rat [1]; [22]) was 30 mg/kg/day. For the same compound, the NEL (rat [1]; [23]) was 10 mg/kg/day, the NOAEL (rat [1]; [23]) was 10 mg/kg/day and the LEL (primate) was 10 mg/kg/day. For the same compound, the LOAEL (primate) was 10 mg/kg/day, the NEL (primate) was < 10 mg/kg/day and the NOAEL (primate) was < 10 mg/kg/day. For the same compound, the LEL (rabbit [2]) was 25 mg/kg/day, the LOAEL (rabbit [2]) was 25 mg/kg/day and the NEL (rabbit [2]) was 15 mg/kg/day. For the same compound, the NOAEL (rabbit [2]) was 15 mg/kg/day.
In the case of `O=S(=O)([O-])C(F)(F)C(F)(F)C(F)(F)C(F)(F)C(F)(F)C(F)(F)F.[K+]` [PFHS-K], the LOAEL (rat [3]; [24]) is reported as > 10 mg/kg/day, the NOAEL (rat [3]; [24]) is reported as ≥ 10 mg/kg/day and the LEL (rat [3]; [25]) is reported as 0.3 mg/kg/day. The NEL (rat [3]; [25]) was < 0.3 mg/kg/day.
For `CC(C)CCCCCOC(=O)c1nc(Cl)c(Cl)c(N)c1Cl` [Picloram-isoctyl], the LEL (rat [4]) was 220 mg/kg/day, the LOAEL (rat [4]) was 220 mg/kg/day and the NEL (rat [4]) was 73 mg/kg/day. For the same compound, the NOAEL (rat [4]) was 73 mg/kg/day.
With `Cc1ccc(N(C)C)cc1` [N,N,4-Trimethylaniline] the LOAEL (mouse [5]; [26]) was > 250 mg/kg/day, the NOAEL (mouse [5]; [26]) was ≥ 250 mg/kg/day and the LEL (mouse [5]; [27]) was 15 mg/kg/day. For the same compound, the NEL (mouse [5]; [27]) was < 15 mg/kg/day, the LEL (mouse [6]) was 6 mg/kg/day and the LOAEL (mouse [6]) was 6 mg/kg/day. For the same compound, the NEL (mouse [6]) was < 6 mg/kg/day, the NOAEL (mouse [6]) was < 6 mg/kg/day and the LEL (rat [7]; [28]) was 125 mg/kg/day. The LOAEL (rat [7]; [28]) was > 1000 mg/kg/day, the NEL (rat [7]; [28]) was 62.5 mg/kg/day and the NOAEL (rat [7]; [28]) was ≥ 1000 mg/kg/day. The LEL (rat [7]; [29]) was 62.5 mg/kg/day, the LOAEL (rat [7]; [29]) was > 1000 mg/kg/day and the NEL (rat [7]; [29]) was < 62.5 mg/kg/day. The NOAEL (rat [7]; [29]) was ≥ 1000 mg/kg/day, the LEL (rat [8]) was 6 mg/kg/day and the LOAEL (rat [8]) was > 60 mg/kg/day. For the same compound, the NEL (rat [8]) was < 6 mg/kg/day and the NOAEL (rat [8]) was ≥ 60 mg/kg/day.
For `CCCCCC(C)OC(=O)COc1ccc(Cl)c2cccnc12` (stereo not drawn) [Cloquintocet-mexyl], the LEL (dog [9]) was 30.2 mg/kg/day, the LOAEL (dog [9]) was 30.2 mg/kg/day and the NEL (dog [9]) was 3.3 mg/kg/day. The NOAEL (dog [9]) was 3.3 mg/kg/day, the LEL (rat [10]; [30]) was 63.9 mg/kg/day and the LOAEL (rat [10]; [30]) was 63.9 mg/kg/day. For the same compound, the NEL (rat [10]; [31]) was 9.66 mg/kg/day, the NOAEL (rat [10]; [31]) was 9.66 mg/kg/day and the LEL (rat [11]; [32]) was 400 mg/kg/day. It also gave an LOAEL (rat [11]; [32]) of 400 mg/kg/day, an NEL (rat [11]; [32]) of 100 mg/kg/day and an NOAEL (rat [11]; [32]) of 100 mg/kg/day. The LEL (rat [11]; [33]) was 400 mg/kg/day, the LOAEL (rat [11]; [33]) was 400 mg/kg/day and the NEL (rat [11]; [33]) was 100 mg/kg/day. The NOAEL (rat [11]; [33]) was 100 mg/kg/day, the LEL (mouse [12]) was 520 mg/kg/day and the LOAEL (mouse [12]) was 520 mg/kg/day. The NEL (mouse [12]) was 102 mg/kg/day, the NOAEL (mouse [12]) was 102 mg/kg/day and the LEL (rabbit [13]; [34]) was 60 mg/kg/day. The LOAEL (rabbit [13]; [34]) was > 300 mg/kg/day, the NEL (rabbit [13]; [34]) was 10 mg/kg/day and the NOAEL (rabbit [13]; [34]) was ≥ 300 mg/kg/day. For the same compound, the LOAEL (rabbit [13]; group: maternal, systemic / in life observation / mortality / mortality) was 300 mg/kg/day, the LEL (rabbit [13]; [35]) was 300 mg/kg/day and the NEL (rabbit [13]; [35]) was 60 mg/kg/day. For the same compound, the NOAEL (rabbit [13]; [35]) was 60 mg/kg/day, the LEL (dog [14]) was 196 mg/kg/day and the LOAEL (dog [14]) was 196 mg/kg/day. The NEL (dog [14]) was 43 mg/kg/day and the NOAEL (dog [14]) was 43 mg/kg/day.
Compound `O=C(O)c1c(Cl)c(Cl)c(C(=O)O)c(Cl)c1Cl` [Chlorthal] has an LOAEL (rat [15]; systemic / in life observation / clinical signs / salivation + systemic / in life observation / clinical signs / soft stools) of 2500 mg/kg/day, an LEL (rat [15]; [36]) of 2500 mg/kg/day and an NEL (rat [15]; [36]) of 1250 mg/kg/day. For the same compound, the NOAEL (rat [15]; [36]) was 1250 mg/kg/day, the LEL (rat [16]) was 2000 mg/kg/day and the LOAEL (rat [16]) was 2000 mg/kg/day. For the same compound, the NEL (rat [16]) was 500 mg/kg/day and the NOAEL (rat [16]) was 500 mg/kg/day.
In the case of `CN(Cc1cnc2nc(N)nc(N)c2n1)c1ccc(C(=O)N[C@@H](CCC(=O)O)C(=O)O)cc1` [Methotrexate], the LEL (rat [17]) is reported as 0.5 mg/kg/day, the LOAEL (rat [17]) is reported as > 2 mg/kg/day and the NEL (rat [17]) is reported as < 0.5 mg/kg/day. The NOAEL (rat [17]) was ≥ 2 mg/kg/day, the LEL (rat [18]) was 0.5 mg/kg/day and the LOAEL (rat [18]) was > 0.5 mg/kg/day. The NEL (rat [18]) was < 0.5 mg/kg/day, the NOAEL (rat [18]) was ≥ 0.5 mg/kg/day and the LEL (rabbit [19]; [37]) was 19.2 mg/kg/day. The LOAEL (rabbit [19]; [37]) was > 19.2 mg/kg/day, the NOAEL (rabbit [19]; [37]) was ≥ 19.2 mg/kg/day and the LEL (rabbit [19]; [38]) was 9.6 mg/kg/day. For the same compound, the NEL (rabbit [19]; [38]) was 4.8 mg/kg/day, the LOAEL (rabbit [19]; [39]) was > 19.2 mg/kg/day and the NOAEL (rabbit [19]; [39]) was ≥ 19.2 mg/kg/day. The LEL (rat [20]) was 0.5 mg/kg/day, the LOAEL (rat [20]) was > 2 mg/kg/day and the NEL (rat [20]) was < 0.5 mg/kg/day. For the same compound, the NOAEL (rat [20]) was ≥ 2 mg/kg/day.
